Structures can show the parent of a compound that is named as a salt. Where two headings read alike, the source gives them in different places.
Assays:
[1] = test system: Aspergillus niger (CMCC 98003); assay: Minimum inhibitory concentration (MIC) assay, Example 33; format: cell-based; conditions: for MIC: Aspergillus niger; for MIC Aspergillus niger: n = 2
Method in brief: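 Conidia gently probed from sporulating colonies into RPMI 1640, set to 0.09-0.13 at 530 nm, then diluted 1:50 and mixed 1:2 with 2-fold serially diluted compounds. Following CLSI guidelines, incubation was at 35 °C before the MIC was recorded.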

[2] = test system: Pseudomonas aeruginosa (ATCC 27853); assay: Time kill study, Example 33 (0 to 5 min); format: cell-based; conditions: 1×MIC
Method in brief: (§1)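 Read-out: Log10 CFU/mL by colony count on agar after 24 to 48 hrs. Exposure: strain suspension and compound solution at equal volume, CLSI method, samples at 0 min, 30 sec, 1 min and 5 mins diluted in test medium before plating.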

[3] = test system: Candida albicans (ATCC 90029); assay: Time kill study, Example 33 (0 to 5 min); format: cell-based; conditions: 1×MIC
Method in brief: as §1

[4] = test system: Staphylococcus aureus (ATCC 29213); assay: Time kill study, Example 33 (0 to 5 min); format: cell-based; conditions: 1×MIC
Method in brief: as §1

[5] = test system: Escherichia coli (ATCC 25922); assay: Time kill study, Example 33 (0 to 5 min); format: cell-based; conditions: 1×MIC
Method in brief: as §1

[6] = Solubility (Sol., Table 1); format: physicochemical
[7] = test system: Staphulococcus aureus (ATCC 29213); assay: Minimum inhibitory concentration (MIC) assay, Example 33; format: cell-based, Staphylococcus aureus; conditions: Staphylococcus aureus
Method in brief: (§2)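 Colonies re-streaked twice on agar (20 to 24 hrs, 35±2° C) supplied inoculum adjusted to 0.5 McFarland, diluted 1:100 into medium, then added 1:2 to CAMHB wells holding 2-fold compound dilutions. After incubation at 35° C, MIC was recorded per CLSI.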

[8] = test system: Candida albicans (ATCC 90029); assay: as above; format: cell-based; conditions: Candida albicans
Method in brief: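 MIC read per CLSI after incubation at 35° C. Colonies in RPMI 1640 adjusted to OD530 0.08–0.13, diluted 1:50 and 1:20 to twice test density, then added 1:2 to wells holding 2-fold serial drug dilutions in RPMI 1640 (CLSI microdilution).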

[9] = test system: Pseudomonas aeruginosa (ATCC 27853); assay: as above; format: cell-based; conditions: Pseudomonas aeruginosa
Method in brief: as §2

[10] = test system: Escherichia coli (ATCC 25922); assay: as above; format: cell-based; conditions: Escherichia coli
Method in brief: as §2

[11] = pH (Table 1); format: physicochemical
[12] = CMCC98003, read-out: MIC Aspergillus niger
[13] = ATCC29213, read-out: MIC S. aureus, n = 1
[14] = ATCC29213, read-out: MIC S. aureus, n = 2
[15] = ATCC90029, read-out: MIC Candida albicans, n = 1
[16] = ATCC90029, read-out: MIC Candida albicans, n = 2
[17] = ATCC27853, read-out: MIC P. aeruginosa, n = 1
[18] = ATCC27853, read-out: MIC P. aeruginosa, n = 2
[19] = ATCC25922, Table 19 summary of Example 33 and Example 35
[20] = ATCC25922, read-out: MIC E. coli, n = 1
[21] = ATCC25922, read-out: MIC E. coli, n = 2

Compound	MIC ([1]; CMCC98003) [µg/mL]	MIC [1, 12] [µg/mL]	MIC Aspergillus niger [1] [µg/mL]	Viable counts, Pseudomonas aeruginosa time kill study ([2]; 0.5 min) [Log10 CFU/mL]	Viable counts, Pseudomonas aeruginosa time kill study ([2]; 1 min) [Log10 CFU/mL]	Viable counts, Pseudomonas aeruginosa time kill study ([2]; 5 min) [Log10 CFU/mL]	Sol. [6] [%]	MIC ([7]; ATCC29213, Table 19 summary) [µg/mL]	MIC [7, 13] [µg/mL]	MIC [7, 14] [µg/mL]	MIC ([8]; ATCC90029, Table 19 summary) [µg/mL]	MIC [8, 15] [µg/mL]	MIC [8, 16] [µg/mL]	MIC ([9]; ATCC27853, Table 19 summary) [µg/mL]	MIC [9, 17] [µg/mL]	MIC [9, 18] [µg/mL]	MIC [10, 19] [µg/mL]	MIC [10, 20] [µg/mL]	MIC [10, 21] [µg/mL]	pH [11]	further results
CCCCCCCCOC(=O)C(C)N(C)C (stereo not drawn) [Nex-70, Octyl 2-(dimethylamino)propanoate hydrochloride]	12500	12500	12500	<4.0	<3.70	<3.52	134	3130	3130	3130	780	780	780	3130	3130	3130	780	780	780	0.88	Viable counts, Pseudomonas aeruginosa time kill study ([2]; time 0): 5.62 Log10 CFU/mL; Viable counts, Candida albicans time kill study ([3]; 0.5 min): 5.53 Log10 CFU/mL; Viable counts, Candida albicans time kill study ([3]; 1 min): 5.51 Log10 CFU/mL; Viable counts, Candida albicans time kill study ([3]; 5 min): 5.49 Log10 CFU/mL; Viable counts, Candida albicans time kill study ([3]; time 0): 5.55 Log10 CFU/mL; Viable counts, Staphylococcus aureus time kill study ([4]; 0.5 min): 6.42 Log10 CFU/mL; Viable counts, Staphylococcus aureus time kill study ([4]; 1 min): 6.37 Log10 CFU/mL; Viable counts, Staphylococcus aureus time kill study ([4]; 5 min): 6.22 Log10 CFU/mL; Viable counts, Staphylococcus aureus time kill study ([4]; time 0): 6.37 Log10 CFU/mL; Viable counts, Escherichia coli time kill study ([5]; 0.5 min): <4.0 Log10 CFU/mL; Viable counts, Escherichia coli time kill study ([5]; 1 min): <3.70 Log10 CFU/mL; Viable counts, Escherichia coli time kill study ([5]; 5 min): <3.52 Log10 CFU/mL; Viable counts, Escherichia coli time kill study ([5]; time 0): 5.0 Log10 CFU/mL
CCCCCCCCCCCCOC(=O)C(C(C)C)N(C)C (stereo not drawn) [Nex-53, Dodecyl 2-(dimethylamino)-3-methylbutanoate hydrochloride]	> 12500	> 12500	>12500	5.54	5.47	5.49	44	6250	6250	6250	> 12500	> 12500	> 12500	6250	6250	6250	6250	6250	6250	1.69	Viable counts, Pseudomonas aeruginosa time kill study ([2]; time 0): 5.54 Log10 CFU/mL; Viable counts, Staphylococcus aureus time kill study ([4]; 0.5 min): 6.2 Log10 CFU/mL; Viable counts, Staphylococcus aureus time kill study ([4]; 1 min): 6.24 Log10 CFU/mL; Viable counts, Staphylococcus aureus time kill study ([4]; 5 min): 6.21 Log10 CFU/mL; Viable counts, Staphylococcus aureus time kill study ([4]; time 0): 6.35 Log10 CFU/mL; Viable counts, Escherichia coli time kill study ([5]; 0.5 min): 5.72 Log10 CFU/mL; Viable counts, Escherichia coli time kill study ([5]; 1 min): 5.71 Log10 CFU/mL; Viable counts, Escherichia coli time kill study ([5]; 5 min): <3.52 Log10 CFU/mL; Viable counts, Escherichia coli time kill study ([5]; time 0): 5.64 Log10 CFU/mL
CCCCCCCCCCCCCCOC(=O)C(C)N(C)C (stereo not drawn) [Nex-66, Tetradecyl 2-(dimethylamino)propanoate hydrochloride]	> 12500	> 12500	>12500	5.91	5.68	5.56	48	3130	3130	3130	> 12500	> 12500	> 12500	6250	6250	6250	3130	3130	3130	2.35	Viable counts, Pseudomonas aeruginosa time kill study ([2]; time 0): 5.64 Log10 CFU/mL; Viable counts, Staphylococcus aureus time kill study ([4]; 0.5 min): 6.5 Log10 CFU/mL; Viable counts, Staphylococcus aureus time kill study ([4]; 1 min): 6.41 Log10 CFU/mL; Viable counts, Staphylococcus aureus time kill study ([4]; 5 min): 6.39 Log10 CFU/mL; Viable counts, Staphylococcus aureus time kill study ([4]; time 0): 6.27 Log10 CFU/mL; Viable counts, Escherichia coli time kill study ([5]; 0.5 min): 5.91 Log10 CFU/mL; Viable counts, Escherichia coli time kill study ([5]; 1 min): 6.03 Log10 CFU/mL; Viable counts, Escherichia coli time kill study ([5]; 5 min): 5.81 Log10 CFU/mL; Viable counts, Escherichia coli time kill study ([5]; time 0): 5.7 Log10 CFU/mL
CCCCCCCCCCCCOC(=O)C(CC(C)C)N(C)C (stereo not drawn) [Nex-55, Dodecyl 2-(dimethylamino)-4-methylpentanoate hydrochloride]	> 12500	> 12500	>12500	5.61	5.58	5.45	50	6250	6250	6250	> 12500	> 12500	> 12500	6250	6250	6250	6250	6250	6250	1.84	Viable counts, Pseudomonas aeruginosa time kill study ([2]; time 0): 5.37 Log10 CFU/mL; Viable counts, Staphylococcus aureus time kill study ([4]; 0.5 min): 6.22 Log10 CFU/mL; Viable counts, Staphylococcus aureus time kill study ([4]; 1 min): 6.21 Log10 CFU/mL; Viable counts, Staphylococcus aureus time kill study ([4]; 5 min): 6.18 Log10 CFU/mL; Viable counts, Staphylococcus aureus time kill study ([4]; time 0): 6.23 Log10 CFU/mL; Viable counts, Escherichia coli time kill study ([5]; 0.5 min): 5.71 Log10 CFU/mL; Viable counts, Escherichia coli time kill study ([5]; 1 min): 5.51 Log10 CFU/mL; Viable counts, Escherichia coli time kill study ([5]; 5 min): 4.6 Log10 CFU/mL; Viable counts, Escherichia coli time kill study ([5]; time 0): 5.68 Log10 CFU/mL
CCCCCCCCCCCCOC(=O)C(Cc1ccccc1)N(C)C (stereo not drawn) [Nex-54, Dodecyl 2-(dimethylamino)-3-phenylpropanoate hydrochloride]	12500	12500	12500	–	–	–	58	≥ 12500	> 12500	12500	6250	6250	6250	≥ 12500	> 12500	12500	≥ 12500	> 12500	12500	2.16	Viable counts, Candida albicans time kill study ([3]; 0.5 min): 5.56 Log10 CFU/mL; Viable counts, Candida albicans time kill study ([3]; 1 min): 5.52 Log10 CFU/mL; Viable counts, Candida albicans time kill study ([3]; 5 min): 5.48 Log10 CFU/mL; Viable counts, Candida albicans time kill study ([3]; time 0): 5.56 Log10 CFU/mL
